1 substance from US6307014A (priority 1998, dated 2001) can be followed below.

The experiment concerns cholinergic synapse of the buccal ganglion. It is filed as cell-based, Aplysia californica.

Consider “Gla Cys Cys Gla Asp Gly BrW Cys Cys Thr Ala Ala OHP [P11.1]”, for which the “reversibility of the IPSC decrease” value was “reversed by washing”.
